We go through eight compounds from patent publication US20250228855A1, “PYRAZINAMIDE COMPOUNDS” (The General Hospital Corporation, priority 2022, published 2025).

Read-outs that look alike come from different tables or passages of the source. Marks after values point to notes of the source that are not given here.

Broadly, the Kd is a measure of binding affinity in units of concentration. The term EC50 denotes the concentration at which the effect is half-maximal. The IC50 is the concentration needed to halve the response being measured.

The target of one assay is PfcProRS (Plasmodium falciparum, UniProt Q8I5R7). In words: TR-FRET ligand displacement assay with tracer MAT379, PfcProRS. The class given is binding.
In assay [1] the test system is halofuginone-induced (HFG-induced) P. falciparum. In words: P. falciparum asexual blood stage growth assay, halofuginone-induced parasites. Particulars: Plasmodium falciparum.
Protocol: (§1) Asexual blood stage (ABS) P. falciparum parasites were treated with test compounds at varying concentrations for 72 h, followed by quantification of parasite growth by SYBR Green staining.
(§2) P. falciparum Asexual Blood Stage Growth Assay: This assay was performed as previously described.
Another assay concerns P. falciparum Dd2-2D4. Briefly: P. falciparum asexual blood stage growth assay, wild-type Dd2-2D4.
The target in a further assay is T1, HsProRS (Homo sapiens, UniProt P07814).
T1 sequence (P07814 1007-1512 limits assumed): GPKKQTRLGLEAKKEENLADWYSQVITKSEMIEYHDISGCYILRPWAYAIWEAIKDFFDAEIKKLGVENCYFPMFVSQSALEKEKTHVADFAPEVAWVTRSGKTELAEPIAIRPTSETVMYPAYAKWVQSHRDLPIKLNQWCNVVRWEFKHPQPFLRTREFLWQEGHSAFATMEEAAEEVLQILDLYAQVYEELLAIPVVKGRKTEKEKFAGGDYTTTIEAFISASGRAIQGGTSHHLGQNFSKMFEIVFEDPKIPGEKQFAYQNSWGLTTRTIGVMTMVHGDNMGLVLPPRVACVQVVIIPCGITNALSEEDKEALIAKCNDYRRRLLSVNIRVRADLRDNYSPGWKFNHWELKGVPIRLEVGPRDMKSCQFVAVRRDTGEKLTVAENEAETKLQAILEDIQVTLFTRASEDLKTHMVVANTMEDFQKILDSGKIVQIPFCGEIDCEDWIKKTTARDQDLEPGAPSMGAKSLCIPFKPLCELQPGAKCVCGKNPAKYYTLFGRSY
Briefly: TR-FRET ligand displacement assay with tracer MAT379, HsProRS. The class given is binding.

The mark [2] stands for this setting: PfcProRS (KD [nM]) +proline, 100 μM Pro.
[3] abbreviates: no proline, no ATP, read-out: PfcProRS (KD [nM]) −.
Setting [4] is: DD2, 72 h, read-out: Dd2 (EC50 [nM]) Halofuginone-induced.
[5] abbreviates: no proline, no ATP, read-out: HsProRS (KD [nM]) −.
Where [6] appears, read: Plasmodium falciparum, DD2, 72 h, read-out: Dd2 (EC50 [nM]) wt.
Setting [7] is: absence of proline, read-out: KD for PfcProRS.
[8] abbreviates: read-out: EC50 in halofuginone-induced parasites.
The mark [9] stands for this setting: Plasmodium falciparum, DD2, read-out: EC50 against Dd2-2D4 wildtype parasites.

Sequence of PfcProRS (Q8I5R7 whole entry): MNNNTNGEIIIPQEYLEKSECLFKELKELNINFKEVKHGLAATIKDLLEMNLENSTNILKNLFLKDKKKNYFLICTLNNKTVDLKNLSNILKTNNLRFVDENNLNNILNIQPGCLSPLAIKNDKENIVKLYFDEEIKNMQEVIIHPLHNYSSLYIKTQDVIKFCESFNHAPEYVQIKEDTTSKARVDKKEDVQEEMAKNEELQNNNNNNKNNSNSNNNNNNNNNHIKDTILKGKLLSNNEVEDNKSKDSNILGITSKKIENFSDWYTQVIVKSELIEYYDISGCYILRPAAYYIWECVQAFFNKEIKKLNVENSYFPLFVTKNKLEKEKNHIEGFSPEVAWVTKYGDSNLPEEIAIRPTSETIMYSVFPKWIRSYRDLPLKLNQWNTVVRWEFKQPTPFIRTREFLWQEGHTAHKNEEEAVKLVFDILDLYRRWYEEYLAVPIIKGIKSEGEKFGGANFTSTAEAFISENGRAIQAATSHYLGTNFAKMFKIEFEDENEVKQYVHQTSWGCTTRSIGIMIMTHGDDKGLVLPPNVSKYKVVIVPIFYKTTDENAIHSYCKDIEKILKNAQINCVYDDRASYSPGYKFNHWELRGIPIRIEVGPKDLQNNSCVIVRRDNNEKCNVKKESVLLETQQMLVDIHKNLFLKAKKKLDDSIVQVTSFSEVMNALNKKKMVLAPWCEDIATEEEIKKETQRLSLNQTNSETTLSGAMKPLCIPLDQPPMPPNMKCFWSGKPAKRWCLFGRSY
Protocol for P. falciparum Dd2-2D4: as §1, §2

Take `CC(C)(C)OC(=O)N1CCC[C@H](OC(=O)NS(=O)(=O)N2CCN(C(=O)Nc3nccnc3C(=O)NC3Cc4ccccc4C3)CC2)[C@H]1CC(=O)Cn1cnc2cc(Br)c(Cl)cc2c1=O` (relative stereo) [Compound 37, tert-butyl trans-2-(3-(7-bromo-6-chloro-4-oxoquinazolin-3(4H)-yl)-2-oxopropyl)-3-((((4-((3-((2,3-dihydro-1H-inden-2-yl)carbamoyl)pyrazin-2-yl)carbamoyl)piperazin-1-yl)sulfonyl)carbamoyl)oxy)piperidine-1-carboxylate]: the Kd was found to be 175 nM at PfcProRS (setting [2]) and 246 nM at PfcProRS (setting [3]). The EC50 in assay [1] (setting [4]) stood at 7150 nM. Moreover, the “percent growth at 10 μM (Dd2 wt)” value in the assay with P. falciparum Dd2-2D4 (10 μM, compound had <50% growth inhibition) worked out at 59% †.
As to `O=C(NC1Cc2ccccc2C1)c1nccnc1NC(=O)C1(O)CCCCC1` [Compound 15, N-(2,3-dihydro-1H-inden-2-yl)-3-(1-hydroxycyclohexane-1-carboxamido)pyrazine-2-carboxamide], the Kd on HsProRS (setting [5]) worked out at 2700 nM; on HsProRS (read-out: HsProRS (KD [nM]) +proline, 100 μM Pro), 21.8 nM. The EC50 in assay [1] (setting [4]) was determined as 3510 nM; in the assay with P. falciparum Dd2-2D4 (setting [6]), 1500 nM.
As for `O=C(NC1CCCCC1)c1nccnc1NC(=O)C1Cc2ccccc2C1` [Compound 49, N-cyclohexyl-3-(2,3-dihydro-1H-indene-2-carboxamido)pyrazine-2-carboxamide], the Kd on HsProRS was more than 5090 nM; on HsProRS (setting [5]), more than 8720 nM; at PfcProRS (setting [2]) it was more than 2180 nM; at PfcProRS (setting [3]), more than 2860 nM. Also, the EC50 with P. falciparum Dd2-2D4 (setting [6]) stood at 6800 nM.
Take `O=C(NC1Cc2ccccc2C1)c1nccnc1NS(=O)(=O)C1CCCCC1` [Compound 50, 3-(cyclohexanesulfonamido)-N-(2,3-dihydro-1H-inden-2-yl)pyrazine-2-carboxamide]: the Kd at HsProRS was more than 5090 nM; at HsProRS (setting [5]) it was more than 8720 nM; at PfcProRS (setting [2]) it was more than 2180 nM; on PfcProRS (setting [3]), more than 2860 nM. Besides, the concentration giving a half-maximal response (EC50) with P. falciparum Dd2-2D4 (setting [6]) was determined as 13000 nM.
For `O=C(NS(=O)(=O)N1CCN(C(=O)Nc2nccnc2C(=O)NC2Cc3ccccc3C2)CC1)O[C@H]1CCCNC1` [MAT445, (S)-piperidin-3-yl ((4-((3-((2,3-dihydro-1H-inden-2-yl)carbamoyl)pyrazin-2-yl)carbamoyl)piperazin-1-yl)sulfonyl)carbamate], on PfcProRS (setting [7]), the Kd worked out at 1110 nM. The concentration for a half-maximal effect (EC50) in assay [1] (setting [4]) is 7620 nM; in assay [1] (setting [8]) it was more than 10000 nM; in the assay with P. falciparum Dd2-2D4 (setting [6]), 1160 nM; with P. falciparum Dd2-2D4 (setting [9]), 1160 nM.
For the compound `O=C(NS(=O)(=O)N1CCN(C(=O)Nc2nccnc2C(=O)NC2Cc3ccccc3C2)CC1)O[C@@H]1CCCNC1` [MAT447, (R)-piperidin-3-yl ((4-((3-((2,3-dihydro-1H-inden-2-yl)carbamoyl)pyrazin-2-yl)carbamoyl)piperazin-1-yl)sulfonyl)carbamate], at PfcProRS (setting [7]), the Kd worked out at 2460 nM. The EC50 in assay [1] (setting [4]) is 6990 nM; in assay [1] (setting [8]), more than 10000 nM; in the assay on P. falciparum Dd2-2D4 (setting [6]), 6250 nM; in the assay with P. falciparum Dd2-2D4 (setting [9]) it was 6250 nM.
For the compound `O=C(NS(=O)(=O)NC1CCN(C(=O)Nc2nccnc2C(=O)NC2Cc3ccccc3C2)CC1)OCCn1cnc2ccccc2c1=O` [MAT513, 2-(4-oxoquinazolin-3(4H)-yl)ethyl (N-(1-((3-((2,3-dihydro-1H-inden-2-yl)carbamoyl)pyrazin-2-yl)carbamoyl)piperidin-4-yl)sulfamoyl)carbamate], the Kd was determined as 157 nM at HsProRS (absence of proline, read-out: KD for HsProRS) and 20.3 nM on PfcProRS (setting [7]). In the assay with P. falciparum Dd2-2D4 (setting [6]), the EC50 was found to be 4830 nM. Also, the IC50 in the assay with P. falciparum Dd2-2D4 (Plasmodium falciparum, DD2, read-out: IC50 for Dd2-2D4) came to 4830 nM.
`Nc1ncnc2c1ncn2[C@@H]1O[C@H](COS(=O)(=O)NC(=O)[C@@H]2CCCN2)[C@@H](O)[C@H]1O` [ProSA (25), 5′-O—[N-(L-Prolyl)-sulfamoyl]adenosine, reference compound]: the EC50 in assay [1] (setting [4]) is 137 nM; in the assay with P. falciparum Dd2-2D4 (setting [6]), 151 nM.
